Results as given in US9302999B2, “Substituted triazoles as herbicides” (E. I. DU PONT DE NEMOURS AND COMPANY, priority 2012, dated 2016).

Key:
Assay type in all cases: in vivo
[1] = tested on: pigweed (Amaranthus retroflexus); test: Test A pre-/postemergence: pigweed
Outline: (§1)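 Rating scale 0–100 (100 = complete control), visual, ~10 days after application in the greenhouse. Applications: preemergence directed soil spray; postemergence at 1–2 leaves.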

[2] = tested on: velvetleaf (Abutilon theophrasti); test: Test C pre-/postemergence: velvetleaf
Outline: (§2)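 Preemergence on seeds in loam/sand, postemergence on 2–18 cm (1–4-leaf) plants in peat-based medium; compounds in non-phytotoxic solvent with surfactant. After 13–15 days in greenhouse, visual rating versus controls, 0 (no effect) to 100 (complete control).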

[3] = tested on: morningglory (Ipomoea spp.); test: Test A pre-/postemergence: morningglory; conditions: Postemergence, 0 to 100 scale, 0 is no effect, 100 is complete control
Outline: as §1

[4] = tested on: kochia (Kochia scoparia); test: Test C pre-/postemergence: kochia; conditions: Postemergence
Outline: as §2

[5] = tested on: wheat (Triticum aestivum); test: Test A pre-/postemergence: wheat
Outline: as §1

[6] = tested on: foxtail, giant (giant foxtail, Setaria faberii); test: Test A pre-/postemergence: foxtail, giant
Outline: as §1

[7] = tested on: corn (Zea mays); test: Test C pre-/postemergence: corn
Outline: as §2

[8] = tested on: ragweed (common ragweed, Ambrosia elation); test: Test C pre-/postemergence: ragweed
Outline: as §2

[9] = tested on: morningglory (Ipomoea coccinea); test: Test C pre-/postemergence: morningglory
Outline: as §2

[10] = tested on: chickweed (common chickweed, Stellaria media); test: Test C postemergence: chickweed
Outline: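 Visual 0–100 injury score vs untreated controls (0 none, 100 complete control), taken 13–15 d after treatment. Postemergence spray on potted plants, 2–18 cm, 1–4 leaves; greenhouse.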

[11] = tested on: winter wheat (Triticum aestivum); test: Test C pre-/postemergence: winter wheat
Outline: as §2

[12] = tested on: velvetleaf (Abutilon theophrasti); test: Test A pre-/postemergence: velvetleaf
Outline: as §1

[13] = Postemergence, 125 g ai/ha, 0 to 100 scale, 0 is no effect, 100 is complete control
[14] = Postemergence, 500 g ai/ha, 0 to 100 scale, 0 is no effect, 100 is complete control
[15] = Preemergence, 125 g ai/ha, 0 to 100 scale where 0 is no effect and 100 is complete control
[16] = Preemergence, 500 g ai/ha, 0 to 100 scale (0 no effect, 100 complete control)
[17] = Postemergence, 31 g ai/ha, scale 0 to 100 (0 no effect, 100 complete control)
[18] = Postemergence, 62 g ai/ha, scale 0 to 100 (0 no effect, 100 complete control)
[19] = Postemergence, 125 g ai/ha, scale 0 to 100, 0 no effect, 100 complete control
[20] = Postemergence, 250 g ai/ha, scale 0 to 100
[21] = Preemergence, 31 g ai/ha, scale 0 (no effect) to 100 (complete control)
[22] = Preemergence, 62 g ai/ha, scale of 0 to 100, 0 is no effect, 100 is complete control
[23] = Preemergence, 125 g ai/ha, scale 0 to 100, 0 no effect, 100 complete control
[24] = Preemergence, 250 g ai/ha, scale 0 to 100, 0 no effect, 100 complete control
[25] = 31 g ai/ha, scale 0 to 100 (0 no effect, 100 complete control)
[26] = 62 g ai/ha, scale 0 to 100 (0 no effect, 100 complete control)
[27] = 125 g ai/ha, scale 0 to 100, 0 no effect, 100 complete control

CCc1nn(-c2ccc(F)cc2)nc1Oc1ccnc(C(F)(F)F)c1 [Compound 166]
Plant response rating, Pigweed [1, 13]: 100 | Pigweed plant response rating [1, 14]: 100 | Plant response rating, Pigweed [1, 15]: 100 | Plant response rating, Pigweed [1, 16]: 100 | Plant response rating, Velvetleaf [2, 17]: 10 | Plant response rating, Velvetleaf [2, 18]: 20 | Plant response rating, Velvetleaf [2, 19]: 20 | Plant response rating, Velvetleaf [2, 20]: 30 | Plant response rating, Velvetleaf [2, 21]: 0 | Plant response rating, Velvetleaf [2, 22]: 0 | Plant response rating, Velvetleaf [2, 23]: 15 | Plant response rating, Velvetleaf [2, 24]: 60 | Plant response rating, Morningglory ([3]; 125 g ai/ha): 90 | Morningglory plant response rating ([3]; 500 g ai/ha): 100 | Plant response rating, Kochia [4, 25]: 90 | Plant response rating, Kochia [4, 26]: 90 | Plant response rating, Kochia [4, 27]: 90 | Plant response rating, Kochia ([4]; 250 g ai/ha, scale 0 to 100): 90 | Plant response rating, Wheat [5, 13]: 30 | Wheat plant response rating [5, 14]: 40 | Plant response rating, Wheat [5, 15]: 10 | Plant response rating, Wheat [5, 16]: 50 | Plant response rating, Foxtail, Giant [6, 13]: 90 | Foxtail, Giant plant response rating [6, 14]: 90 | Plant response rating, Foxtail, Giant [6, 15]: 100 | Plant response rating, Foxtail, Giant [6, 16]: 100 | Plant response rating, Corn [7, 17]: 15 | Plant response rating, Corn [7, 18]: 15 | Plant response rating, Corn [7, 19]: 15 | Plant response rating, Corn [7, 20]: 15 | Plant response rating, Corn [7, 21]: 0 | Plant response rating, Corn [7, 23]: 5 | Plant response rating, Corn [7, 24]: 20 | Plant response rating, Ragweed [8, 17]: 15 | Plant response rating, Ragweed [8, 18]: 15 | Plant response rating, Ragweed [8, 19]: 25 | Plant response rating, Ragweed [8, 20]: 75 | Plant response rating, Ragweed [8, 21]: 20 | Plant response rating, Ragweed [8, 22]: 20 | Plant response rating, Ragweed [8, 23]: 25 | Plant response rating, Ragweed [8, 24]: 55 | Plant response rating, Morningglory [9, 17]: 30 | Plant response rating, Morningglory [9, 18]: 30 | Plant response rating, Morningglory [9, 19]: 35 | Plant response rating, Morningglory [9, 20]: 65 | Plant response rating, Morningglory [9, 22]: 10 | Plant response rating, Morningglory [9, 23]: 25 | Plant response rating, Morningglory [9, 24]: 45 | Plant response rating, Chickweed [10, 25]: 55 | Plant response rating, Chickweed [10, 26]: 90 | Plant response rating, Chickweed [10, 27]: 90 | Plant response rating, Chickweed ([10]; 250 g ai/ha, scale 0 to 100): 90 | Plant response rating, Wheat [11, 17]: 5 | Plant response rating, Wheat [11, 18]: 5 | Plant response rating, Wheat [11, 19]: 5 | Plant response rating, Wheat [11, 20]: 10 | Plant response rating, Wheat [11, 21]: 0 | Plant response rating, Wheat [11, 22]: 0 | Plant response rating, Wheat [11, 23]: 5 | Plant response rating, Wheat [11, 24]: 15 | Plant response rating, Velvetleaf [12, 13]: 80 | Velvetleaf plant response rating [12, 14]: 100 | Plant response rating, Velvetleaf [12, 15]: 30 | Plant response rating, Velvetleaf [12, 16]: 70
